PMC6979384, “Characterization of the plant homeodomain (PHD) reader family for their histone tail interactions” (Epigenetics & Chromatin, 2020)

How the values were obtained:
Test in all cases: Histone peptide microarray
Type in all cases: binding, human
AIRE (PP) = settings: sheet "Array Heatmap"; GST-tagged AIRE (PP); arrays performed twice, total replicate number n = 4
In short: (§1)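 A peptide microarray holding 293 synthetic histone peptides with individual or combinatorial modifications was probed with each GST-PHD protein at 0.5 μM. Values represent mean intensity (±SD) from four replicates.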

BAZ2B = settings: sheet "Array Heatmap"; GST-tagged BAZ2B; arrays performed twice, total replicate number n = 4
In short: as §1

BPTF (PB) = settings: sheet "Array Heatmap"; GST-tagged BPTF (PB); arrays performed twice, total replicate number n = 4
In short: as §1

CHD4 (PPCC) = settings: sheet "Array Heatmap"; GST-tagged CHD4 (PPCC); arrays performed twice, total replicate number n = 4
In short: as §1

CHD5 (PCC) = settings: sheet "Array Heatmap"; GST-tagged CHD5 (PCC); arrays performed twice, total replicate number n = 4
In short: as §1

CHD5 (PPCC) = settings: sheet "Array Heatmap"; GST-tagged CHD5 (PPCC); arrays performed twice, total replicate number n = 4
In short: as §1

DIDO1 = settings: sheet "Array Heatmap"; GST-tagged DIDO1; arrays performed twice, total replicate number n = 4
In short: as §1

DPF2 (PPC2W2) = settings: sheet "Array Heatmap"; GST-tagged DPF2 (PPC2W2); arrays performed twice, total replicate number n = 4
In short: as §1

ING1 = settings: sheet "Array Heatmap"; GST-tagged ING1; arrays performed twice, total replicate number n = 4
In short: as §1

ING2 = settings: sheet "Array Heatmap"; GST-tagged ING2; arrays performed twice, total replicate number n = 4
In short: as §1

ING3 = settings: sheet "Array Heatmap"; GST-tagged ING3; arrays performed twice, total replicate number n = 4
In short: as §1

ING4 = settings: sheet "Array Heatmap"; GST-tagged ING4; arrays performed twice, total replicate number n = 4
In short: as §1

ING5 = settings: sheet "Array Heatmap"; GST-tagged ING5; arrays performed twice, total replicate number n = 4
In short: as §1

KDM4C (TTP) = settings: sheet "Array Heatmap"; GST-tagged KDM4C (TTP); arrays performed twice, total replicate number n = 4
In short: as §1

KDM5A (1) = settings: sheet "Array Heatmap"; GST-tagged KDM5A (1); arrays performed twice, total replicate number n = 4
In short: as §1

KDM5A (3) = settings: sheet "Array Heatmap"; GST-tagged KDM5A (3); arrays performed twice, total replicate number n = 4
In short: as §1

KDM5B (1) = settings: sheet "Array Heatmap"; GST-tagged KDM5B (1); arrays performed twice, total replicate number n = 4
In short: as §1

KDM5B (3) = settings: sheet "Array Heatmap"; GST-tagged KDM5B (3); arrays performed twice, total replicate number n = 4
In short: as §1

KDM7A = settings: sheet "Array Heatmap"; GST-tagged KDM7A; arrays performed twice, total replicate number n = 4
In short: as §1

MLL5 = settings: sheet "Array Heatmap"; GST-tagged MLL5; arrays performed twice, total replicate number n = 4
In short: as §1

MORC3 (CW) = settings: sheet "Array Heatmap"; GST-tagged MORC3 (CW); arrays performed twice, total replicate number n = 4
In short: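 GST-tagged PHD readers, 0.5 μM, probed on a microarray of 293 synthetic histone peptides carrying single or combinatorial PTMs (optimized Petell protocol). Signals are averaged over 4 replicates and expressed as relative binding.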

PHF13 = settings: sheet "Array Heatmap"; GST-tagged PHF13; arrays performed twice, total replicate number n = 4
In short: as §1

PHF21A = settings: sheet "Array Heatmap"; GST-tagged PHF21A; arrays performed twice, total replicate number n = 4
In short: as §1

PHF23 = settings: sheet "Array Heatmap"; GST-tagged PHF23; arrays performed twice, total replicate number n = 4
In short: as §1

PHF2 = settings: sheet "Array Heatmap"; GST-tagged PHF2; arrays performed twice, total replicate number n = 4
In short: as §1

PHF8 = settings: sheet "Array Heatmap"; GST-tagged PHF8; arrays performed twice, total replicate number n = 4
In short: as §1

PHRF1 (RP) = settings: sheet "Array Heatmap"; GST-tagged PHRF1 (RP); arrays performed twice, total replicate number n = 4
In short: as §1

RAG2 = settings: sheet "Array Heatmap"; GST-tagged RAG2; arrays performed twice, total replicate number n = 4
In short: as §1

SP140L = settings: sheet "Array Heatmap"; GST-tagged SP140L; arrays performed twice, total replicate number n = 4
In short: as §1

TAF3 = settings: sheet "Array Heatmap"; GST-tagged TAF3; arrays performed twice, total replicate number n = 4
In short: as §1

TRIM66 (PB) = settings: sheet "Array Heatmap"; GST-tagged TRIM66 (PB); arrays performed twice, total replicate number n = 4
In short: as §1

Substance	Array Heatmap signal, AIRE (PP) (AIRE (PP))	Array Heatmap signal, BAZ2B (BAZ2B)	Array Heatmap signal, BPTF (PB) (BPTF (PB))	Array Heatmap signal, CHD4 (PPCC) (CHD4 (PPCC))	Array Heatmap signal, CHD5 (PCC) (CHD5 (PCC))	Array Heatmap signal, CHD5 (PPCC) (CHD5 (PPCC))	Array Heatmap signal, DIDO1 (DIDO1)	Array Heatmap signal, DPF2 (PPC2W2) (DPF2 (PPC2W2))	Array Heatmap signal, ING1 (ING1)	Array Heatmap signal, ING2 (ING2)	Array Heatmap signal, ING3 (ING3)	Array Heatmap signal, ING4 (ING4)	Array Heatmap signal, ING5 (ING5)	Array Heatmap signal, KDM4C (TTP) (KDM4C (TTP))	Array Heatmap signal, KDM5A (1) (KDM5A (1))	Array Heatmap signal, KDM5A (3) (KDM5A (3))	Array Heatmap signal, KDM5B (1) (KDM5B (1))	Array Heatmap signal, KDM5B (3) (KDM5B (3))	Array Heatmap signal, KDM7A (KDM7A)	Array Heatmap signal, MLL5 (MLL5)	other results
H3.3 30-49: H3.3 30-49	0.4614	0.4498	0.3385	0.5572	0.7506	0.5477	0.5964	0.6135	0.4817	0.5868	0.4515	0.4627	0.3551	0.523	0.4724	0.3975	0.6846	0.4643	0.4094	0.5124	Array Heatmap signal, MORC3 (CW) (MORC3 (CW)): 0.3401; Array Heatmap signal, PHF13 (PHF13): 0.586; Array Heatmap signal, PHF21A (PHF21A): 0.447; Array Heatmap signal, PHF23 (PHF23): 0.5238; Array Heatmap signal, PHF2 (PHF2): 0.404; Array Heatmap signal, PHF8 (PHF8): 0.3443; Array Heatmap signal, PHRF1 (RP) (PHRF1 (RP)): 0.4134; Array Heatmap signal, RAG2 (RAG2): 0.2343; Array Heatmap signal, SP140L (SP140L): 0.3561; Array Heatmap signal, TAF3 (TAF3): 0.2689; Array Heatmap signal, TRIM66 (PB) (TRIM66 (PB)): 0.5248
H3.3 75-94: H3.3 120-135	0.502	0.4527	0.3448	0.5423	0.7355	0.563	0.6416	0.6426	0.5031	0.5986	0.473	0.4549	0.3621	0.5145	0.468	0.454	0.6676	0.4774	0.3506	0.5079	Array Heatmap signal, MORC3 (CW) (MORC3 (CW)): 0.3704; Array Heatmap signal, PHF13 (PHF13): 0.6071; Array Heatmap signal, PHF21A (PHF21A): 0.449; Array Heatmap signal, PHF23 (PHF23): 0.5259; Array Heatmap signal, PHF2 (PHF2): 0.46; Array Heatmap signal, PHF8 (PHF8): 0.3469; Array Heatmap signal, PHRF1 (RP) (PHRF1 (RP)): 0.4716; Array Heatmap signal, RAG2 (RAG2): 0.2477; Array Heatmap signal, SP140L (SP140L): 0.3784; Array Heatmap signal, TAF3 (TAF3): 0.2603; Array Heatmap signal, TRIM66 (PB) (TRIM66 (PB)): 0.5407
